Test results as given in the Kinase Knowledgebase extract (Sharma et al. 2016).

Tests used:
EGFR (human) [1] = molecular target: EGFR (human) (UniProt P00533); conditions: a549
EGFR (human) [2] = molecular target: EGFR (human) (UniProt P00533); conditions: hop-92
EGFR (human) [3] = molecular target: EGFR (human) (UniProt P00533); conditions: h522
EGFR (human) [4] = molecular target: EGFR (human) (UniProt P00533); conditions: sf-295
EGFR (human) [5] = molecular target: EGFR (human) (UniProt P00533); conditions: snb-19
EGFR (human) [6] = molecular target: EGFR (human) (UniProt P00533); conditions: u251
EGFR (human) [7] = molecular target: EGFR (human) (UniProt P00533); conditions: m14
EGFR (human) [8] = molecular target: EGFR (human) (UniProt P00533); conditions: sk-mel-2
EGFR (human) [9] = molecular target: EGFR (human) (UniProt P00533); conditions: sk-mel-5
EGFR (human) [10] = molecular target: EGFR (human) (UniProt P00533); conditions: ovcar-3
EGFR (human) [11] = molecular target: EGFR (human) (UniProt P00533); conditions: 786-0
EGFR (human) [12] = molecular target: EGFR (human) (UniProt P00533); conditions: rxf-393
EGFR (human) [13] = molecular target: EGFR (human) (UniProt P00533); conditions: uo-31
EGFR (human) [14] = molecular target: EGFR (human) (UniProt P00533); conditions: pc-3
EGFR (human) [15] = molecular target: EGFR (human) (UniProt P00533); conditions: mg-mid
EGFR (human) [16] = molecular target: EGFR (human) (UniProt P00533); conditions: hl60tb

EGFR (human), sequence (P00533 whole entry, looked up): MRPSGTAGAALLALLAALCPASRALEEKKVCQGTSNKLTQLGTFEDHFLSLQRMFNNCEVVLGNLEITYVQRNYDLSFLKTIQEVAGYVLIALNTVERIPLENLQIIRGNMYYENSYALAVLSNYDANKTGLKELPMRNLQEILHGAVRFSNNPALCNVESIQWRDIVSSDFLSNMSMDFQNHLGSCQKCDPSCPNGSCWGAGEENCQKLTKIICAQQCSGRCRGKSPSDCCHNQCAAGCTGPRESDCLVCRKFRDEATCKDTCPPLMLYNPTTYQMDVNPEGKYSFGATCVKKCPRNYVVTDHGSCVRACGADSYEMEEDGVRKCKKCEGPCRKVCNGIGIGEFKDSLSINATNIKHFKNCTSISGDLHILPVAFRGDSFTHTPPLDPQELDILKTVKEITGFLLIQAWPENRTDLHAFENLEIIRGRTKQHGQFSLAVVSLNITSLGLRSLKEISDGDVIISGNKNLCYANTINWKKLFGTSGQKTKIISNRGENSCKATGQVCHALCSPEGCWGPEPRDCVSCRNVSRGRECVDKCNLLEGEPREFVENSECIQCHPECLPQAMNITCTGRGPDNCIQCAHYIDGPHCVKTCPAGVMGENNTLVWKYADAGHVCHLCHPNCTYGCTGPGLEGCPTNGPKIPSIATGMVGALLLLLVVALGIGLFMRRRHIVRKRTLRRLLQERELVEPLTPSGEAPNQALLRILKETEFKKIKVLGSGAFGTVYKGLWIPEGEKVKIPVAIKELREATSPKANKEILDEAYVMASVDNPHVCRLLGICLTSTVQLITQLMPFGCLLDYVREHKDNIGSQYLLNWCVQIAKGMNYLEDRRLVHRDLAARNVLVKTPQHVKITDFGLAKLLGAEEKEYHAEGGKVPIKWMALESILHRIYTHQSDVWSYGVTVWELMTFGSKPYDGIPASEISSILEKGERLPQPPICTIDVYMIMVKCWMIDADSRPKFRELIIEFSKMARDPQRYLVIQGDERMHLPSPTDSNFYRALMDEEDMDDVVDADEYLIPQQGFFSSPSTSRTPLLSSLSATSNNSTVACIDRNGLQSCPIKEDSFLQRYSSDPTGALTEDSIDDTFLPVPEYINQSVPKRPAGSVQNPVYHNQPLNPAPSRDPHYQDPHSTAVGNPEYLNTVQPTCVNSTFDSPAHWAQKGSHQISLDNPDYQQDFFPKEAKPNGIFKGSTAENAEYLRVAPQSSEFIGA

| Structure (SMILES) | GI50 (EGFR (human) [1]) | GI50 (EGFR (human) [2]) | GI50 (EGFR (human) [3]) | GI50 (EGFR (human) [4]) | GI50 (EGFR (human) [5]) | GI50 (EGFR (human) [6]) | GI50 (EGFR (human) [7]) | GI50 (EGFR (human) [8]) | GI50 (EGFR (human) [9]) | GI50 (EGFR (human) [10]) | GI50 (EGFR (human) [11]) | GI50 (EGFR (human) [12]) | GI50 (EGFR (human) [13]) | GI50 (EGFR (human) [14]) | GI50 (EGFR (human) [15]) | GI50 (EGFR (human) [16]) |
| --- | --- | --- | --- | --- | --- | --- | --- | --- | --- | --- | --- | --- | --- | --- | --- | --- |
| CCOC(=O)/C(C#N)=C/c1ccc([N+](=O)[O-])s1 | 15.5 µM | 11.5 µM | 1.69 µM | 2.09 µM | 14.8 µM | 13.5 µM | 1.74 µM | 3.31 µM | 1.2 µM | 2.04 µM | 10.7 µM | 1.7 µM | 1.86 µM | 2.95 µM | 3.47 µM | 0.28 µM |
| N#CC(C#N)=C(N)/C(C#N)=C/c1ccc([N+](=O)[O-])s1 |  |  | 11 µM | 17.4 µM | 17.8 µM | 18.6 µM | 12 µM | 19.5 µM | 7.58 µM | 15.5 µM | 19.9 µM | 9.33 µM | 18.2 µM | 19.9 µM | 13.2 µM |  |
| N#CC(C#N)=Cc1csc([N+](=O)[O-])c1 | > 100 µM | 30.9 µM | 15.1 µM |  | 60.2 µM |  | 17.8 µM | 26.9 µM | 15.8 µM | 21.9 µM | 33.9 µM | 17.4 µM | 17.8 µM | 38 µM | 30.2 µM | 42.6 µM |
